This passage reports GI50 and TGI results from PubChem BioAssay (NCI).

What all share (assay): NCI-60 cell line screen, 48 h
For assay [1], the system named is HCT-15 colon.
For assay [2], the system named is UACC-257 melanoma.
Assay [3] deals with MOLT-4 leukemia.
For assay [4], the system named is A498 renal.
Assay [5] concerns OVCAR-8 ovarian.
The test system of assay [6] is SN12C renal.
Assay [7] relates to KM12 colon.
Assay [8] concerns SF-295 CNS.
For assay [9], the system named is OVCAR-4 ovarian.
In assay [10] the test system is SR leukemia.

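Method: 48-hour compound exposure of cells in 96-well plates, five concentrations, linear interpolation of endpoints. GI50 is the concentration that inhibits growth by half. TGI marks complete inhibition of growth.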

Take `COc1ccc(C(=O)C(CN(C)C)c2ccccc2)cc1` (configuration not stated): the GI50 is 1.81 µM in assay [1]; 2.39 µM in assay [2]; 4.41 µM in [3]; 8.11 µM in assay [4]; 3.46 µM in assay [5]; 3.56 µM in assay [6]. Moreover, the GI50 in assay [7] is 3.98 µM; in assay [8] it was 12.6 µM; in assay [9] it was 5.34 µM. Also, the TGI in assay [1] was 4.73 µM; in assay [2] it was 10.7 µM; in [3], greater than 100 µM; in [4], 20.5 µM; in assay [5], 12.5 µM; in assay [6] it was 12.1 µM. Besides, the TGI in assay [7] was 13.6 µM; in assay [8], 32.4 µM; in assay [9] it was greater than 100 µM.
Consider `CC(C)C(NCc1c2ccccc2nc2ccccc12)C(=O)O` (configuration not stated), for which the TGI in assay [10] was greater than 100 µM; in [1] it was greater than 100 µM; in [2] it was greater than 100 µM; in [3], 69.1 µM; in assay [5], greater than 100 µM; in assay [6], greater than 100 µM. Further, the TGI in assay [7] is greater than 100 µM; in [8], greater than 100 µM; in [9], 42.8 µM.
`O=C1/C(=C/c2ccc(Cl)cc2)COc2ccc(Br)cc21`: the TGI in assay [2], in assay [3], in assay [4], in assay [5], in [7] and in assay [8] was greater than 100 µM each time.
For the compound `O=C(c1nc2ccccc2[nH]1)C1C(c2cccc([N+](=O)[O-])c2)C2CC3CCCCC3N2[C@@]12C(=O)Nc1cc(Cl)ccc12` (some centres not stated), the GI50 was 2.23 µM in [10]; 1.9 µM in [2]; 2.38 µM in assay [3]; 2.68 µM in assay [5]; 1.72 µM in assay [6]; 1.63 µM in [7]. The GI50 is 1.56 µM in assay [8] and 2.08 µM in assay [9]. Also, the TGI is 9.25 µM in assay [10]; 6.09 µM in [2]; 10.1 µM in [3]; 20.1 µM in assay [5]; 3.62 µM in assay [6]; 3.5 µM in assay [7]. Moreover, the TGI stood at 3.58 µM in [8] and 8.87 µM in assay [9].
Regarding `CCOC(=O)CCC(NC(=O)c1ccc(Nc2nc3cc(N)cc(N)c3nc2-c2ccccc2)cc1)C(=O)OCC` (configuration not stated), the GI50 was greater than 48.1 µM in assay [1]; 6.04 µM in [2]; 9.9 µM in assay [3]; 47.1 µM in assay [5]; 26.2 µM in assay [6]; greater than 52.9 µM in [7]. In addition, the GI50 in [8] is greater than 42 µM; in assay [9] it was 44.5 µM. Besides, the TGI was greater than 100 µM in assay [1]; 13.7 µM in assay [2]; greater than 27.2 µM in assay [3]; greater than 100 µM in [5]; 58.1 µM in assay [6]; greater than 100 µM in assay [7]. The TGI was greater than 66.3 µM in assay [8] and greater than 100 µM in assay [9].
Take `O=C1/C(=C/c2ccccc2)CN(C(=O)Oc2ccccc2)C/C1=C\c1ccccc1`: the TGI in assay [1], in [2], in assay [4], in [5], in assay [6] and in [7] was greater than 100 µM each time. Also, the TGI was 34.1 µM in assay [8] and greater than 100 µM in assay [9].
Take `O=[P+](O)c1cc2c3ccccc3ccc2c2ccccc12`: the TGI in assay [3], in [5], in [6], in assay [7], in assay [8] and in [9] was greater than 100 µM in each case.
Regarding `O=c1cc(-c2ccccc2)[nH]c2c(F)ccc(F)c12`, the TGI in [10] is 90.3 µM; in [1], greater than 100 µM; in [2], greater than 100 µM; in assay [3], greater than 100 µM; in assay [5], greater than 100 µM; in assay [6], greater than 100 µM. For the same compound, the TGI in assay [7], in assay [8] and in [9] was greater than 100 µM in each case.
Take `CC(=O)[O-].CC(=O)[O-].CC(=O)[O-].CC(=O)[O-].CO.CO.CO.[Rh+2].[Rh+2].c1ccc(-c2ccccn2)nc1`: the GI50 in assay [10], in assay [1], in assay [2], in [3], in [5] and in assay [6] was greater than 100 µM each time. Moreover, the GI50 in [7], in assay [8] and in [9] was greater than 100 µM throughout. The TGI in assay [10], in [1], in assay [2], in assay [3], in [5] and in assay [6] was greater than 100 µM throughout. The TGI in assay [7], in [8] and in assay [9] was greater than 100 µM in each case.
In the case of `CC(C)=CCCC1(C)C=Cc2c(ccc3c2[nH]c2cc(O)c(C)cc23)O1` (configuration not stated), the GI50 is 5.55 µM in assay [10]; 4.96 µM in [1]; 4.16 µM in assay [3]; 4.63 µM in [6]; 4.74 µM in assay [7]. Also, the TGI in assay [10] is 14.7 µM; in [1], 10.8 µM; in assay [3] it was 11.2 µM; in assay [5] it was 7.49 µM; in assay [6], 8.24 µM; in [7] it was 8.77 µM. Also, the TGI in assay [9] was greater than 25 µM.
Consider `COc1ccc(OC)c(/C=C/C(=O)c2ccc(SC)cc2)c1`, for which the GI50 in [1] was 13.8 µM; in [2] it was 16.9 µM; in assay [3] it was 3.26 µM; in [4], 13.7 µM; in [5], 24.3 µM; in [6], 17.2 µM. In addition, the GI50 in [7] is 4.9 µM; in assay [8] it was 5.05 µM; in assay [9] it was 61.1 µM. Moreover, the TGI is 36.6 µM in assay [1]; 33.8 µM in [2]; greater than 100 µM in [3]; 30.3 µM in assay [4]; 68.7 µM in [5]; 33.9 µM in assay [6]. For the same compound, the TGI was 27.7 µM in assay [7], 57 µM in [8] and greater than 100 µM in [9].
`COc1cccc(C2N3CCCCC3[C@@H]3c4[nH]c5ccccc5c4CCN23)c1OC` (some centres not stated): the TGI in assay [1] turned out to be 30.8 µM; in assay [2], 30.1 µM; in [3] it was 36.6 µM; in assay [4] it was 23.8 µM; in assay [5] it was 30.8 µM; in assay [6] it was 31 µM. Moreover, the TGI in assay [8] is 31.6 µM; in [9] it was 31.5 µM.
For the compound `CC1CC(=O)CC[C@@H]1OCc1ccccc1` (some centres not stated), the TGI in [1], in assay [2], in assay [3], in assay [4], in [5] and in [6] was greater than 100 µM throughout. For the same compound, the TGI in [7], in assay [8] and in [9] was greater than 100 µM throughout.
In the case of `COC(=O)C([O][Ge]([CH3])([CH3])[CH3])c1ccccc1` (configuration not stated), the GI50 in assay [1], in assay [2], in assay [3], in assay [4], in [5] and in assay [6] was greater than 100 µM in each case. In addition, the GI50 in [7], in assay [8] and in [9] was greater than 100 µM each time. For the same compound, the TGI in assay [1], in assay [2], in assay [3], in [4], in [5] and in [6] was greater than 100 µM each time. The TGI in assay [7], in assay [8] and in assay [9] was greater than 100 µM throughout.
As for `CCCN(CCC)c1c([N+](=O)[O-])cc(C(N)=O)cc1[N+](=O)[O-]`, the TGI in [1], in [2], in [3], in assay [5], in assay [6] and in assay [7] was greater than 100 µM throughout. Moreover, the TGI in assay [8] and in assay [9] was greater than 100 µM in each case.
With `c1cc[c]([Sn]([O]c2cccc3cccnc23)([c]2ccccc2)[c]2ccccc2)cc1`, the GI50 in assay [1] is 0.0139 µM; in assay [2] it was 0.0334 µM; in assay [3] it was 0.0102 µM; in [5], 0.0184 µM; in assay [6] it was 0.0151 µM; in assay [7], 0.0135 µM. Also, the GI50 in assay [8] is 0.0306 µM; in assay [9], 0.0146 µM. The TGI in [1] was 0.0285 µM; in assay [2], 0.117 µM; in [3] it was 0.0402 µM; in assay [5], 0.0336 µM; in assay [6] it was 0.0293 µM; in assay [7] it was 0.0267 µM. The TGI in [8] came out at 0.0761 µM; in assay [9], 0.0343 µM.
Turning to `COc1ccccc1NC(=O)NS(=O)(=O)c1ccccc1`, the TGI in assay [2], in assay [5], in assay [6], in [7], in assay [8] and in assay [9] was greater than 100 µM each time.
For `Cc1nc(C)c(C(=O)NNC(=O)c2ccccc2)cc1C(=O)NNC(=O)c1ccccc1`, the TGI in assay [1], in [2], in [3], in [4], in assay [5] and in assay [6] was greater than 100 µM each time. Further, the figures for the TGI in [7], in [8] and in assay [9] were greater than 10 µM, greater than 100 µM and greater than 100 µM, respectively.
Consider `C/C(=N/OCCC(=O)O)C1CC1`, for which the TGI in [10], in assay [1], in assay [5], in assay [6], in assay [7] and in assay [8] was greater than 100 µM throughout. This compound had a TGI in [9] greater than 100 µM.
As to `C/C(CC(=O)Nc1cc(Cl)c(Cl)cc1Cl)=N\NS(=O)(=O)c1ccc(C)cc1`, the TGI in assay [2], in assay [3], in assay [4], in [5], in assay [7] and in assay [8] was greater than 100 µM throughout.
As to `COc1ccc2nc(NC(=O)C(=O)C(C#N)c3ccc(CC#N)cc3)sc2c1` (configuration not stated), the TGI in assay [1], in assay [2], in assay [3], in [4], in assay [5] and in assay [6] was greater than 100 µM each time. The TGI in [7], in assay [8] and in assay [9] was greater than 100 µM throughout.
In the case of `CC(C(=O)C(C)O[Si](c1ccccc1)(c1ccccc1)C(C)(C)C)=P(c1ccccc1)(c1ccccc1)c1ccccc1` (configuration not stated), the TGI in assay [1] came out at 18.8 µM; in assay [2] it was 13.5 µM; in assay [3] it was 13.5 µM; in assay [4] it was 16.1 µM; in [5] it was 14.2 µM; in [6] it was 13.5 µM. Besides, the TGI in assay [7] is 12.9 µM; in [8] it was 10.3 µM; in [9], 13.9 µM.
On to `O=C1CCC(=O)C(C(=O)CCC(=O)Nc2ccc(Cl)cc2)C1` (configuration not stated), for which the TGI in assay [1], in assay [2], in assay [3], in assay [4], in assay [5] and in assay [6] was greater than 100 µM in each case. Further, the TGI in [7], in [8] and in assay [9] was greater than 100 µM each time.
As to `CCc1cc2c(c3[nH]ccc13)[C@@H](C)C[C@H]2C`, the TGI was 30.9 µM in assay [1]; 39.9 µM in assay [2]; 38.2 µM in assay [3]; 30.2 µM in assay [4]; 41.1 µM in assay [5]; 29.8 µM in assay [6]. The TGI in [7] stood at 36.5 µM; in assay [8], 35.2 µM.
As to `COc1cc2ccc(C(=O)O)cc2cc1OC`, the TGI in assay [1], in assay [2], in [3], in [4], in assay [5] and in assay [6] was greater than 100 µM throughout. Moreover, the TGI in [7], in assay [8] and in [9] was greater than 100 µM in each case.
